This is an account of results in patent US20230117034A1, “PYRAZOLOTRIAZINES” (Bayer Aktiengesellschaft, priority 2019, published 2023).

In one assay the target is T1, CDK9/CycT1 (Homo sapiens, UniProt P50750).
T1 construct: Recombinant full-length His-tagged human CDK9 and CycT1; purchased Life Technologies PV4131; host or cells: insect cells
Kind of assay: CDK9/CycT1 high ATP kinase assay (TR-FRET, 2 mM ATP). Type of assay: biochemical. The following applies: 2 mM ATP (high ATP); median; read-out: CDK9/CyclinT1, 2 mM ATP (high ATP), IC50 (median). Summed up: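 Full-length His-tagged human CDK9/CycT1 (insect cell, ~0.5 μg/mL) preincubated 15 min at 22 °C with compound in Tris pH 8.0, MgCl2, DTT buffer before reaction with biotinylated peptide substrate at high ATP (2 mM).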
(TR-FRET usually uses a lanthanide donor and a delayed reading to cut background.)

Assay [1] addresses T2, CDK12 protein level in CAL-120 breast cancer cells (Homo sapiens, UniProt Q9NYV4).
T2 construct: endogenous in cells; host or cells: CAL-120 human breast cancer cells (DSMZ ACC 459)
The experiment in a line: CDK12 protein level: Protein Simple (CDK12, CAL-120). Type of assay: cell-based. The following applies: CAL-120 cells, 18 h with compound, CDK12/HSP90 peak area ratio vs vehicle, median, read-out: CDK12 protein level in CAL-120 breast ca cells, DC50-[mol/l] (median). As for the experimental part: CAL-120 human breast cancer cells (DSMZ ACC 459) were seeded at 300,000 cells/well in 6-well plates containing 2 mL of growth medium (DMEM, 10% FCS, glutamine) and incubated for 24 h at 37° C. in an humidified incubator. Test compounds were added at various concentrations, control wells received solvent (DMSO), and the plates were incubated for another 18 h at 37° C. Cells were washed 2 times with PBS and lysed in 75 microL lysis buffer (MSD-Puffer (MSD, #R60TX-2), +1% 505S+PhosSTOP (Roche #04906837001)+complete mini (Roche #04693159001)) by scraping. The lysates were pushed 2 times through Qiashedders followed by centrifugation at 14,000 rpm for 30-50 sec. The supernatant was stored at −20° C. Proteins were separated by applying 0.4 microgramms of protein lysate to Protein Simple 66-440 kDa (Protein Simple #SM-S002) size assay columns on a PEGGY SUE or SALLY SUE equipment according to the supplier's manual. CDK12 and HSP90 (loading control) were detected using anti-human CDK12 antibody (Cell Signaling Technologies (CST) #11793) at 1:25 dilution and anti-human HSP90 antibody (CST #4877) at 1:5,000 dilution. CDK12 and HSP90 peak areas were determined using Protein Simple Compass software. Ratio of CDK12/HSP90 peak areas were calculated for each sample, and […] values (degrading concentration to achieve 50% reduction relative to vehicle treated control) were determined by means of a 4 parameter fit.

The test system of assay [2] is BRCA1 mRNA expression in CAL-120 cells. Kind of assay: qRT-PCR assay: BRCA1 mRNA expression in CAL-120. Format: cell-based. The following applies: Homo sapiens; Inhibition of BRCA1 mRNA expression in CAL-120 cells; median; read-out: RTqPCR-CAL-120, IC50, BRCA1 (median). The protocol:
3. qRT-PCR Assay: BRCA, ATR, MCL1 in MDA-MB-231, CAL-120
Tissue cultured human MDA-MB-231 human breast cancer cells were plated in 500 microL per well at 200,000 cells/well in a 24 well microtiter plate. After 24 h, the cells were exposed continuously for 24 h to test substances (substances were added with Tecan HP 0300 Dispenser). RNA was prepared using Qiagen RNeasy MiniKit (#74106), RNA was quantified using a NanoDrop Equipment, and 600 nano gamms of RNA was coverted to cDNA using a SuperScript VILO kit (Thermofisher #11755050) followed by qPCR amplification. BRCA1 and ATR gene expression was measured by RT-qPCR and normalised to GAPDH housekeeping gene expression. qPCR primer sets have been purchased from Thermo Fisher Scientific/Applied Biosystems: BRCA1, #Hs 01556193; ATR, #Hs 00992123; GAPDH, #Hs 03929097.
Background: Quantitative PCR measures a nucleic acid by following its amplification.

The target of assay [3] is T3, CYCLIN K (nuclear staining in CAL-120 cells) (Homo sapiens, UniProt O75909).
T3 construct: endogenous in cells; host or cells: CAL-120 human breast cancer cells (DSMZ ACC 459)
The experiment in a line: CYCLIN K nuclear protein level: immunofluorescence high content analysis (CAL-120). Format: cell-based. The following applies: 24 h, 50% reduction of nuclear CCNK staining intensity, median, read-out: CYCLIN K degradation IF, DC50-[mol/l] (median). Summed up:
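Readout is automated confocal image analysis of nuclear cyclin K immunofluorescence (Hoechst nuclei) after PFA fixation. Cells were CAL-120, exposed to compound dose-response 24 h at 37 °C; values are DC50 for halving nuclear CCNK signal relative to DMSO and control wells.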

T2 sequence (Q9NYV4 whole entry): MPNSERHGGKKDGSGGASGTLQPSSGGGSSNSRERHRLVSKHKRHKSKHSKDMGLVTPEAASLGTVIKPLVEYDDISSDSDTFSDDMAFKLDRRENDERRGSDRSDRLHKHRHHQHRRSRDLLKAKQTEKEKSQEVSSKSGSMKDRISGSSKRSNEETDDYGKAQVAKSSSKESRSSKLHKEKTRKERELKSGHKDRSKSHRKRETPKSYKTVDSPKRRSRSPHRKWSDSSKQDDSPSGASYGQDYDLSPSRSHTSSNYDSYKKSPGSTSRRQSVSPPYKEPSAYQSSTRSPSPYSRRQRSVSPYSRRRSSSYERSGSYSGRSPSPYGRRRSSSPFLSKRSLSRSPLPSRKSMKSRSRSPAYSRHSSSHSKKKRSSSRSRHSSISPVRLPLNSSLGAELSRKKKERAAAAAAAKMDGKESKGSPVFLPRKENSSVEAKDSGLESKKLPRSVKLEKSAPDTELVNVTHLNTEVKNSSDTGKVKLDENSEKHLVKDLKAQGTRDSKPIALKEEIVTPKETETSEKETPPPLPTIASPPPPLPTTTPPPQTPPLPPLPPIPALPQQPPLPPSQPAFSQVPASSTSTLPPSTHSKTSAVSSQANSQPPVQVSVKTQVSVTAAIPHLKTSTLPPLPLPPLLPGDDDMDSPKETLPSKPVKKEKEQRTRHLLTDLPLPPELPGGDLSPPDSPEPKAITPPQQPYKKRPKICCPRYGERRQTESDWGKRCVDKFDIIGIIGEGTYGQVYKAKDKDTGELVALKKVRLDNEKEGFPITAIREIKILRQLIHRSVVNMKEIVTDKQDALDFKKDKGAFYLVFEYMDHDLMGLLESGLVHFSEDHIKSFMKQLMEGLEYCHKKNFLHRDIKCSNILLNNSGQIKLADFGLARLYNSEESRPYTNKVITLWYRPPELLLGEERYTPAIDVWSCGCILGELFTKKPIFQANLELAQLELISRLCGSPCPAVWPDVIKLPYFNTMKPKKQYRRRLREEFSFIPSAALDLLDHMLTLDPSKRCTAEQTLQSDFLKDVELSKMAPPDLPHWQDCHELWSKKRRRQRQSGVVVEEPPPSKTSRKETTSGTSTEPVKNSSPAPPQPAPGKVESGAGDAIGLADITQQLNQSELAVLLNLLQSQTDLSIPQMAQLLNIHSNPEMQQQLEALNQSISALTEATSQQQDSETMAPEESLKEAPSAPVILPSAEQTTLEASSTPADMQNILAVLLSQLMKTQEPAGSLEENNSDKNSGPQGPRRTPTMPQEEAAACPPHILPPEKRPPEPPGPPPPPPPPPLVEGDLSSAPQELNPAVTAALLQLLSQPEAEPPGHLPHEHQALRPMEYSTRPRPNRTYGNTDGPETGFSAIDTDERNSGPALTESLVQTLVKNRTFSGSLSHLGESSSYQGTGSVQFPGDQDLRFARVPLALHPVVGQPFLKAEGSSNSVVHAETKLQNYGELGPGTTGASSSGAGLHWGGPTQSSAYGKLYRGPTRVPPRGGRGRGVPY
T2 sequence (O75909 whole entry partner): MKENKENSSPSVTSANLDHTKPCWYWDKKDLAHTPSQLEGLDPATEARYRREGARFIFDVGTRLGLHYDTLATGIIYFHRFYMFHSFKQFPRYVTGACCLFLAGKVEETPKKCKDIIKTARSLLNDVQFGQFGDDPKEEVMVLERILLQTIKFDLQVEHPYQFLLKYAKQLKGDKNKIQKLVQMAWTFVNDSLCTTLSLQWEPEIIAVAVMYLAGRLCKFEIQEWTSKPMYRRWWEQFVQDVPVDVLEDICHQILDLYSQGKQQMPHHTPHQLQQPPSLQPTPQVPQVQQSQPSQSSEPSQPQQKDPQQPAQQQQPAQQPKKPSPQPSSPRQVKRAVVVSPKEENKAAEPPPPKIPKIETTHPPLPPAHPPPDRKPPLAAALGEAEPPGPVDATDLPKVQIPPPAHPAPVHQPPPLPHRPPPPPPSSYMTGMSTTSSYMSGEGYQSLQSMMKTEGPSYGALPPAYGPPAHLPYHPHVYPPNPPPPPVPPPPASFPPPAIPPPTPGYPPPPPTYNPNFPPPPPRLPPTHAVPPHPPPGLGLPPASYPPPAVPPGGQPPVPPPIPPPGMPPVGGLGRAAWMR
T1 sequence (P50750 whole entry): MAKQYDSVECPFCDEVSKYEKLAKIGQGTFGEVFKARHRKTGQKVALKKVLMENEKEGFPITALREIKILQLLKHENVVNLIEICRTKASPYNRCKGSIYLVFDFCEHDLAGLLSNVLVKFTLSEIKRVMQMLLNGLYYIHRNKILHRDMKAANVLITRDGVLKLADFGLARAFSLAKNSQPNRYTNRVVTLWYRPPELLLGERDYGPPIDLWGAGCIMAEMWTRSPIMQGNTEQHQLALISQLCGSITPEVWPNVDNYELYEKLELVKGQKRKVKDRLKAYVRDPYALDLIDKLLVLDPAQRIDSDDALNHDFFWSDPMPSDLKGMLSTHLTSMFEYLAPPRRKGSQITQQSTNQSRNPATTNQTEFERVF
T1 sequence (O60563 whole entry partner): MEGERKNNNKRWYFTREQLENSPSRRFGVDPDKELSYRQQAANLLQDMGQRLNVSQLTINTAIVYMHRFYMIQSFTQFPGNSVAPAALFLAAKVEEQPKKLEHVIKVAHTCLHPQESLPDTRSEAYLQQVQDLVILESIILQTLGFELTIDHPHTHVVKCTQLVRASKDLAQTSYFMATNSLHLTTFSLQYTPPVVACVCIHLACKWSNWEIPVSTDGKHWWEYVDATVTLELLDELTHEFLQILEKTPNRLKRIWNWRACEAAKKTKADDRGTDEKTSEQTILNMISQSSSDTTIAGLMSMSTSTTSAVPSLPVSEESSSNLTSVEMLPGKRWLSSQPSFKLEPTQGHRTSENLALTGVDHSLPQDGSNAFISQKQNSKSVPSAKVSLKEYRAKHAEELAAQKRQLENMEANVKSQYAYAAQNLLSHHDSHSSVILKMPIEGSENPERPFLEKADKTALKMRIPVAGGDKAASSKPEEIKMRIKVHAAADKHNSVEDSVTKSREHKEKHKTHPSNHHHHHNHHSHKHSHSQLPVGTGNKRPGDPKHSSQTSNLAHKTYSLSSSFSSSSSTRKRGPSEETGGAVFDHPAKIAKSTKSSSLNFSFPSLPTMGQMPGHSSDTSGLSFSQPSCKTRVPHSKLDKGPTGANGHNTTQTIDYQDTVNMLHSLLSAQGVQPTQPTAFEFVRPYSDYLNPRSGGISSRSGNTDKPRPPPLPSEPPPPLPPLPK
T3 sequence (O75909 whole entry): as the sequence (O75909 whole entry partner) above
T3 sequence (Q9NYV4 whole entry partner): as the sequence (Q9NYV4 whole entry) above

For the compound `Brc1cnn2c(NCc3nc4c([nH]3)CCCC4)nc(N3CCOCC3)nc12` [Example 21, 8-bromo-2-(morpholin-4-yl)-N-[(4,5,6,7-tetrahydro-1H-benzimidazol-2-yl)methyl]pyrazolo[1,5-a][1,3,5]triazin-4-amine], the IC50 is greater than 20000 nM on CDK9/CycT1 and 211 nM in assay [2]. For the same compound, in assay [1], the DC50 was greater than 100 nM.

Consider `Fc1ccc2[nH]c(CNc3nc(N4CCOCC4)nc4c(Br)cnn34)nc2c1F` [Example 25, 8-bromo-N-[(4,5-difluoro-1H-benzimidazol-2-yl)methyl]-2-(morpholin-4-yl)pyrazolo[1,5-a][1,3,5]triazin-4-amine], for which the DC50 in assay [3] was 0.263 nM; in assay [1], less than 1 nM. Further, on CDK9/CycT1, the IC50 came to 5780 nM.

With `Brc1cnn2c(NCc3nnc(-c4ccccc4)[nH]3)nc(N3CCOCC3)nc12` [Example 24, 8-bromo-2-(morpholin-4-yl)-N-[(5-phenyl-4H-1,2,4-triazol-3-yl)methyl]pyrazolo[1,5-a][1,3,5]triazin-4-amine], the results for the DC50 in assay [3] and in assay [1] were 1.67 nM and 9.33 nM, respectively. Further, the IC50 at CDK9/CycT1 was determined as 3060 nM; in assay [2], 34.5 nM.

Turning to `Brc1cnn2c(NCc3ncc(-c4ccccc4)[nH]3)nc(N3CCOCC3)nc12` [Example 23, 8-bromo-2-(morpholin-4-yl)-N-[(5-phenyl-1H-imidazol-2-yl)methyl]pyrazolo[1,5-a][1,3,5]triazin-4-amine], the DC50 in assay [3] is 1.02 nM; in assay [1], less than 1 nM. For the same compound, the IC50 on CDK9/CycT1 was determined as 3240 nM.

`Brc1cnn2c(NCc3nc4ccncc4[nH]3)nc(N3CCOCC3)nc12` [Example 22, 8-bromo-N-[(3H-imidazo[4,5-c]pyridin-2-yl)methyl]-2-(morpholin-4-yl)pyrazolo[1,5-a][1,3,5]triazin-4-amine]: the IC50 on CDK9/CycT1 was greater than 18400 nM. Also, the DC50 in assay [1] turned out to be 118 nM.

On to `CC1CN(C)CCN1c1nc(NCc2nc3ccccc3[nH]2)n2ncc(Br)c2n1` (single isomer, unassigned; enantiomer 1) [Example 260, N-(1H-benzimidazol-2-ylmethyl)-8-bromo-2-[(2R or S)-2,4-dimethylpiperazin-1-yl]pyrazolo[1,5-a][1,3,5]triazin-4-amine (Enantiomer 1)], for which the DC50 is 0.152 nM in assay [3] and less than 1 nM in assay [1]. Further, on CDK9/CycT1, the IC50 was greater than 20000 nM.

As for `Brc1cnn2c(NCc3nc4ccccc4[nH]3)nc(N3C[C@H]4CNC[C@H]4C3)nc12` [Example 283, N-[(1H-benzimidazol-2-yl)methyl]-8-bromo-2-[(3aR,6aS)-hexahydropyrrolo[3,4-c]pyrrol-2(1H)-yl]pyrazolo[1,5-a][1,3,5]triazin-4-amine], the DC50 in assay [3] was determined as 0.367 nM. For the same compound, on CDK9/CycT1, the IC50 was greater than 20000 nM.

In the case of `CNC1CCN(c2nc(NCc3nc4ccccc4[nH]3)n3ncc(Br)c3n2)CC1` [Example 272, N-[(1H-benzimidazol-2-yl)methyl]-8-bromo-2-[4-(methylamino)piperidin-1-yl]pyrazolo[1,5-a][1,3,5]triazin-4-amine], the DC50 in assay [3] is 1.38 nM. Also, on CDK9/CycT1, the IC50 is greater than 20000 nM.

Turning to `COc1ccc2[nH]c(CNc3nc(N4CCOCC4)nc4c(C(F)(F)F)cnn34)nc2c1` [Example 257, N-[(5-methoxy-1H-benzimidazol-2-yl)methyl]-2-(morpholin-4-yl)-8-(trifluoromethyl)pyrazolo[1,5-a][1,3,5]triazin-4-amine], the DC50 in assay [3] turned out to be 0.864 nM. Moreover, the IC50 at CDK9/CycT1 is greater than 20000 nM.

Consider `CN(CC(C)(C)O)c1nc(NCc2nc3c(F)c(F)ccc3[nH]2)n2ncc(C3CC3)c2n1` [Example 292, 1-[(8-cyclopropyl-4-{[(4,5-difluoro-1H-benzimidazol-2-yl)methyl]amino}pyrazolo[1,5-a][1,3,5]triazin-2-yl)(methyl)amino]-2-methylpropan-2-ol], for which, in assay [3], the DC50 amounted to 0.643 nM. Further, the IC50 on CDK9/CycT1 is greater than 6250 nM.

`CN1CCN(c2nc(NCc3nc4ccccc4[nH]3)n3ncc(C4CC4)c3n2)CC1` [Example 246, N-[(1H-benzimidazol-2-yl)methyl]-8-cyclopropyl-2-(4-methylpiperazin-1-yl)pyrazolo[1,5-a][1,3,5]triazin-4-amine]: the DC50 in assay [3] worked out at 1.02 nM. For the same compound, the IC50 at CDK9/CycT1 is greater than 20000 nM.

For `CN[C@@H]1CCN(c2nc(NCc3nc4ccccc4[nH]3)n3ncc(Br)c3n2)C1` [Example 253, N-[(1H-benzimidazol-2-yl)methyl]-8-bromo-2-[(3R)-3-(methylamino)pyrrolidin-1-yl]pyrazolo[1,5-a][1,3,5]triazin-4-amine], the DC50 in assay [3] amounted to 1.82 nM. Further, the IC50 at CDK9/CycT1 was greater than 20000 nM.

Take `Fc1ccc2[nH]c(CNc3nc(N4CCOCC4)nc4c(C5CCCC5)cnn34)nc2c1F` [Example 262, 8-cyclopentyl-N-[(4,5-difluoro-1H-benzimidazol-2-yl)methyl]-2-(morpholin-4-yl)pyrazolo[1,5-a][1,3,5]triazin-4-amine]: the DC50 in assay [3] turned out to be 1.94 nM. Further, the IC50 on CDK9/CycT1 was greater than 20000 nM.

`Brc1cnn2c(NCc3nc4ccccc4[nH]3)nc(N3CC4CCNC4C3)nc12` (centres unmarked) [Example 271, 2-(2,3,3a,4,6,6a-hexahydro-1H-pyrrolo[2,3-c]pyrrol-5-yl)-N-(1H-benzimidazol-2-ylmethyl)-8-bromo-pyrazolo[1,5-a][1,3,5]triazin-4-amine]: the DC50 in assay [3] was 1.21 nM. The IC50 at CDK9/CycT1 is greater than 20000 nM.

As to `Cc1ccnc2[nH]c(CNc3nc(N4CCOCC4)nc4c(Br)cnn34)nc12` [Example 20, 8-bromo-N-[(7-methyl-3H-imidazo[4,5-b]pyridin-2-yl)methyl]-2-(morpholin-4-yl)pyrazolo[1,5-a][1,3,5]triazin-4-amine], the DC50 in assay [3] was 1.35 nM; in assay [1], 2.6 nM. For the same compound, the figures for the IC50 (on CDK9/CycT1; in assay [2]) were 9220 nM and 17.7 nM, respectively.

On to `Brc1cnn2c(NCc3nc4ccccc4[nH]3)nc(N3C[C@@H]4C[C@H]3CN4)nc12` [Example 270, N-[(1H-benzimidazol-2-yl)methyl]-8-bromo-2-[(1S,4S)-2,5-diazabicyclo[2.2.1]heptan-2-yl]pyrazolo[1,5-a][1,3,5]triazin-4-amine], for which the DC50 in assay [3] was found to be 0.19 nM. At CDK9/CycT1, the IC50 is greater than 20000 nM.

On to `FC(F)(F)Cc1cnn2c(NCc3nc4cc(Cl)ccc4[nH]3)nc(N3CCOCC3)nc12` [Example 299, N-[(5-chloro-1H-benzimidazol-2-yl)methyl]-2-(morpholin-4-yl)-8-(2,2,2-trifluoroethyl)pyrazolo[1,5-a][1,3,5]triazin-4-amine], for which, in assay [3], the DC50 worked out at 0.484 nM. In addition, the IC50 at CDK9/CycT1 is greater than 20000 nM.

Regarding `Fc1ccc2[nH]c(CNc3nc(N4CCOCC4)nc4c(C(F)(F)F)cnn34)nc2c1` [Example 273, N-[(5-fluoro-1H-benzimidazol-2-yl)methyl]-2-(morpholin-4-yl)-8-(trifluoromethyl)pyrazolo[1,5-a][1,3,5]triazin-4-amine], in assay [3], the DC50 stood at 0.66 nM. Also, the IC50 at CDK9/CycT1 was greater than 20000 nM.
